Test: log P
Assay type: physicochemical
Excerpt: The term “log P” refers to the partition coefficient of a compound. The partition coefficient is the ratio of concentrations of un-ionized compound in each of two solution phases, for example, octanol and water. To measure the partition coefficient of ionizable solute compounds, the pH of the aqueous phase is adjusted such that the predominant form of the compound is un-ionized. The logarithm of the ratio of concentrations of the un-ionized solute compound in the solvents is called log P. The log P is a measure of lipophilicity. For example, log Poct/wat=log([solute]octanol/[solute]un-ionized,water).
Combined Results for particular compounds described herein, with respect to log P, membrane trafficking (uM), sigma-2 receptor affinity, sigma-1 receptor affinity microsomal stability in mouse liver microsomes (MLM) (t1/2, min), t1/2 normalized to CT)10914 and in vitro toxicity potassium channel hERG (IC50, nM) are provided in Table 1: […]

Compound | log P
CC(C)=CC(CC(C)(C)c1ccc(Cl)cc1)N1CCN(C(=O)OC(C)(C)C)CC1 (stereo not drawn) [Compound 194] | 6.01
CC(C)=CC(CC(C)(C)c1ccc(F)cc1)N1CCN(S(=O)(=O)N(C)C)CC1 (stereo not drawn) [Compound 195] | 3.36
CCOC(=O)N1CCN(C(C=C(C)C)CC(C)(C)c2ccc(F)cc2)CC1 (stereo not drawn) [Compound 196] | 4.85
COC(=O)N1CCN(C(C=C(C)C)CC(C)(C)c2ccc(Cl)cc2)CC1 (stereo not drawn) [Compound 197] | 4.95
COC1CCN(C(C=C(C)C)CC(C)(C)c2ccccc2)CC1 (stereo not drawn) [Compound 202] | 4.62
CC(C)=CC(CC(C)(C)c1ccc(F)cc1)N1CCN(C)C(=O)C1 (stereo not drawn) [Compound 203] | 3.75
CC(C)=CC(CC(C)(C)c1ccccc1)N1CCC(C2CCOCC2)CC1 (stereo not drawn) [Compound 204] | 5.7
CC(C)=CC(CC(C)(C)c1ccc(C(F)(F)F)cc1)N1CCNC(=O)C1 (stereo not drawn) [Compound 206] | 4.26
CC(C)=CC(CC(C)(C)c1ccc(C(F)(F)F)cc1)N1CCN(S(=O)(=O)N(C)C)CC1 (stereo not drawn) [Compound 207] | 4.09
CCOC(=O)N1CCN(C(C=C(C)C)CC(C)(C)c2ccc(C(F)(F)F)cc2)CC1 (stereo not drawn) [Compound 208] | 5.58
CC(C)=CC(CC(C)(C)c1ccc(C(F)(F)F)cc1)N1CCN(C(=O)OCC(C)C)CC1 (stereo not drawn) [Compound 209] | 6.47
CC(C)=CC(CC(C)(C)c1ccc(Cl)cc1)N1CCC(O)(c2ccccc2)CC1 (stereo not drawn) [Compound 211] | 6.23
CCCCC1(O)CCN(C(C=C(C)C)CC(C)(C)c2ccc(Cl)cc2)CC1 (stereo not drawn) [Compound 214] | 6.27
CC(C)=CC(CC(C)(C)c1ccc(F)cc1)N1CCC(C)(OC(=O)NC(C)C)CC1 (stereo not drawn) [Compound 215] | 5.5
CCCCC1(OC(=O)NC(C)C)CCN(C(C=C(C)C)CC(C)(C)c2ccc(C(F)(F)F)cc2)CC1 (stereo not drawn) [Compound 216] | 7.65
COCCC1(O)CCN(C(C=C(C)C)CC(C)(C)c2ccccc2)CC1 (stereo not drawn) [Compound 219] | 3.91
CC(C)=CC(CC(C)(C)c1ccccc1)N1CCC(O)(c2ccccc2)CC1 (stereo not drawn) [Compound 220] | 5.62
CC(C)=CC(CC(C)(C)c1ccc(F)cc1)N1CCC(O)(c2ccccc2)CC1 (stereo not drawn) [Compound 221] | 5.76
CCCCC1(O)CCN(C(C=C(C)C)CC(C)(C)c2ccc(F)cc2)CC1 (stereo not drawn) [Compound 222] | 5.81
CCCCC1(O)CCN(C(C=C(C)C)CC(C)(C)c2ccccc2)CC1 (stereo not drawn) [Compound 223] | 5.67
CC(C)=CC(CC(C)(C)c1ccc(Cl)cc1)N1CCNC(=O)C1 (stereo not drawn) [Compound 224] | 3.98
CCCCC1(OC(=O)NC(C)C)CCN(C(C=C(C)C)CC(C)(C)c2ccc(Cl)cc2)CC1 (stereo not drawn) [Compound 225] | 7.37
CC(C)=CC(CC(C)(C)c1ccccc1)N1CCNC(=O)C1 (stereo not drawn) [Compound 227] | 3.38

Compound | log P
CC(C)=CC(CC(C)(C)c1ccc(C(F)(F)F)cc1)N1CCC(C)(OC(=O)NC(C)C)CC1 (stereo not drawn) [Compound 228] | 6.24
COCC1CCCN1C(C=C(C)C)CC(C)(C)c1ccc(Cl)cc1 (stereo not drawn) [Compound 234] | 5.68
COC[C@H]1CCCN1[C@H](C=C(C)C)CC(C)(C)c1ccc(Cl)cc1 [Compound 235] | 5.68
CC(C)=CC(CC(C)(C)c1ccc(Cl)cc1)N1CCC[C@H]1CO (stereo partly drawn) [Compound 237] | 5.04
CC(C)=C[C@H](CC(C)(C)c1ccc(Cl)cc1)N1CCC[C@@H]1CO [Compound 240] | 5.04
CC(C)=C[C@@H](CC(C)(C)c1ccc(F)cc1)N1CCC[C@@H]1CO [Compound 241] | 4.57
CC(C)=C[C@H](CC(C)(C)c1ccc(C(F)(F)F)cc1)N1CCC[C@@H]1CO [Compound 243] | 5.31
COC[C@H]1CCCN1C(C=C(C)C)CC(C)(C)c1ccc(Cl)cc1 (stereo partly drawn) [Compound 246] | 5.68
COC[C@H]1CCCN1C(C=C(C)C)CC(C)(C)c1ccc(C(F)(F)F)cc1 (stereo partly drawn) [Compound 247] | 5.95
CCOC(=O)C1CCN(C(C=C(C)C)CC(C)(C)c2ccc(Cl)cc2)CC1 (stereo not drawn) [Compound 248] | 5.84
COC[C@H]1CCCN1C(C=C(C)C)CC(C)(C)c1ccc(F)cc1 (stereo partly drawn) [Compound 251] | 5.22
COc1cc(CCC(C)(C)N2Cc3cccc(C(=O)N4CCN(C(=O)CN(C)C)CC4)c3C2)ccc1O [Compound 258] | 2.62
COc1cc(CCC(C)(C)N2Cc3cccc(C(=O)N4CCN(C(=O)[C@@H](N)Cc5ccccc5)CC4)c3C2)ccc1O [Compound 259] | 4.03
COc1cc(CCC(C)(C)N2Cc3cccc(C(=O)N4CCN(C(=O)[C@@H]5CCCN5)CC4)c3C2)ccc1O [Compound 260] | 2.46
COCCOCCC1CCN([C@H](C=C(C)C)CC(C)(C)c2ccc(C(F)(F)F)cc2)CC1 [Compound 263] | 6.28
COCCOCCC1CCN([C@@H](C=C(C)C)CC(C)(C)c2ccc(C(F)(F)F)cc2)CC1 [Compound 264] | 6.28
CC(C)=C[C@H](CC(C)(C)c1ccc(C(F)(F)F)cc1)N1CCC(C)(O)CC1 [Compound 265] | 5.13
CC(C)=C[C@@H](CC(C)(C)c1ccc(C(F)(F)F)cc1)N1CCC(C)(O)CC1 [Compound 266] | 5.13
CCOC(=O)C1CCN(C(C=C(C)C)CC(C)(C)c2ccc(F)cc2)CC1 (stereo not drawn) [Compound 267] | 5.37
CCOC(=O)C1CCN(C(C)CC(C)(C)c2ccc(Cl)cc2)CC1 (stereo not drawn) [Compound 268] | 4.83
COc1cc(CCC(C)(C)N2Cc3cccc(C(=O)N4CCN(C(=O)[C@H](C)N)CC4)c3C2)ccc1O [Compound 269] | 2.2
COc1cc(CCC(C)(C)N2Cc3cccc(C(=O)N4CCN(C(=O)CN)CC4)c3C2)ccc1O [Compound 270] | 1.81
COc1cc(CCC(C)(C)N2Cc3cccc(C(=O)N4CCN(C(=O)C(Cc5ccccc5)N(C)C)CC4)c3C2)ccc1O (stereo not drawn) [Compound 271] | 4.85

Compound | log P
COC(=O)N1CCN(C(=O)c2cccc3c2CN(C(C)(C)CCc2ccc(O)c(OC)c2)C3)CC1 [Compound 272] | 3.35
COc1cc(CCC(C)(C)N2Cc3cccc(C(=O)N4CCN(C(=O)[C@@H]5CCCN5C)CC4)c3C2)ccc1O [Compound 274] | 3.24
COC[C@@H]1CCCN1C(C=C(C)C)CC(C)(C)c1ccc(C(F)(F)F)cc1 (stereo partly drawn) [Compound 275] | 5.95
COC[C@@H]1CCCN1C(C)CC(C)(C)c1ccc(C(F)(F)F)cc1 (stereo partly drawn) [Compound 276] | 4.95
CCOC(=O)C1CCN(C(C)CC(C)(C)c2ccc(C(F)(F)F)cc2)CC1 (stereo not drawn) [Compound 277] | 5.11
CCOC(=O)C1CCN(C(C=C(C)C)CC(C)(C)c2ccccc2)CC1 (stereo not drawn) [Compound 278] | 5.23
COc1cc(CCC(C)(C)N2Cc3cccc(C(=O)N4CCN(C(=O)CNC(C)=O)CC4)c3C2)ccc1O [Compound 279] | 1.63
COc1cc(CCC(C)(C)N2Cc3cccc(C(=O)N4CCN(C(=O)[C@@H](Cc5ccccc5)NC(C)=O)CC4)c3C2)ccc1O [Compound 280] | 3.85
COc1cc(CCC(C)(C)N2Cc3cccc(C(=O)N4CCN(C(=O)[C@H](C)O)CC4)c3C2)ccc1O [Compound 281] | 2.48
COc1cc(CCC(C)(C)N2Cc3cccc(C(=O)N4CCN(C(=O)[C@@H]5CCCN5C(C)=O)CC4)c3C2)ccc1O [Compound 282] | 2.47
CC(C)(CCN1CCC(CO)CC1)c1ccc(Cl)cc1 [Compound 283] | 3.62
CC(C)(CCN1CCC(CCO)CC1)c1ccc(Cl)cc1 [Compound 284] | 3.98
CC(C)(CCN1CCC(O)(c2ccccc2)CC1)c1ccc(Cl)cc1 [Compound 285] | 4.81
CCOC(=O)C1CCN(C(C=C(C)C)CC(C)(C)c2ccc(C(F)(F)F)cc2)CC1 (stereo not drawn) [Compound 286] | 6.11
CCOC(=O)C1CCN(CCC(C)(C)c2ccc(Cl)cc2)CC1 [Compound 287] | 4.41
CC(C)(CCN1CC[C@@H](O)C1)c1ccc(Cl)cc1 [Compound 288] | 3.1
COC[C@@H]1CCCN1CCC(C)(C)c1ccc(Cl)cc1 [Compound 289] | 4.26
COC(=O)[C@H]1CCCN1CCC(C)(C)c1ccc(Cl)cc1 [Compound 290] | 4.08
COC(=O)C1CCN(CCC(C)(C)c2ccc(Cl)cc2)CC1 [Compound 291] | 4.06
COC(=O)[C@@H]1CCCN1CCC(C)(C)c1ccccc1 [Compound 293] | 3.48
COC(=O)[C@H]1CCCN1CCC(C)(C)c1ccccc1 [Compound 294] | 3.48
COC(=O)C1CCN(CCC(C)(C)c2ccccc2)CC1 [Compound 295] | 3.45
CC1(O)CCN(CCC(C)(C)c2ccccc2)CC1 [Compound 296] | 2.83

Reference: patent publication US11214540B2, “Compositions for treating neurodegenerative diseases” (COGNITION THERAPEUTICS, INC., priority 2017, dated 2022)
